Test results from patent publication US9547009B2, “Benzocyclooctyne compounds and uses thereof” (Academia Sinica, priority 2012, dated 2017).
Each block holds one molecule with its values, some of them ahead of it.

What was measured:
[1] = Absorption/fluorescence spectroscopy and quantum yield under simulated physiological conditions (10% DMSO in PBS); assay type: physicochemical; conditions: excitation at 330 nm, PBS buffer containing 10% DMSO, pH 7.4, 37° C.; for quantum yield Φf: quinine sulfate standard
Method: All spectroscopic measurements of Compound 1 and the triazole products 1-A and 1-B were performed in a mixture of 10% DMSO in PBS buffer (FIG. 11). UV-vis spectra and fluorescence spectra were recorded on a Molecular Devices Spectramax M5 spectrometer. For each experiment, the absorbance spectra were measured within an absorbance range of 0.07 to 0.7 (l=[…]). Quantum yields were determined from the slope of the integrated fluorescence emission between 360 and 550 nm (excitation at 330 nm) versus absorbance using quinine sulfate (Φf=0.54±0.0 3)[^S3] as fluorescence standard. The quantum yield was calculated as an average of 4 points according to the following equation: Φsample=Φstandard(Astandard/Asample)(Fsample/Fstandard)(nsample/nstandard)^2 where “Φ” is the quantum yield, “A” is the absorbance at the excitation frequency, “F” is the area under the emission curve, and “n” is the refractive index of the solvent.
Formation of triazoles 1-A and 1-B were accompanied by a significant increase in fluorescence intensity with a large Stokes shift into a standard range for coumarin emission (FIG. 8a).

[2] = Photophysical properties of alkynyl coumarin-indolium compound C and its CuAAC triazole product 18; assay type: physicochemical; conditions: 18: in aqueous solution; for extinction coefficient ε: at λmax 500 nm
[3] = Photophysical properties of Compound 1 and its benzyl azide triazole regioisomers 3a/3b; assay type: physicochemical; conditions: for extinction coefficient relative to Compound 1: at λmax 330 nm; for fluorescence emission λmax: upon irradiation
From the text: In one embodiment, Compound 1 reacted with benzyl azide in ethanol/water (1:1) in the absence of copper(I) catalyst to afford the cycloaddition product as a mixture of two triazole reigoisomers 3a and 3b. These two trizaole isomers were separated, and their photophysical properties were investigated, respectively. […] The quantum yields of triazole compounds 3a (Φf=0.23) and 3b (Φf=0.22) were 20-fold higher than Compound 1 (Φf=0.011).

[4] = tested on: CL1-5 cells; experiment: Fluorescence labeling of azido-glycoconjugates in live cells (time-lapse and confocal microscopy); assay type: cell-based
Method: To observe the fluorescence labeled azido-glycoconjugates in cells, CL1-5 cells (a lung cancer cell line) were seeded on chamber slide (2.5×10^4 cells/0.5 mL per wells) and incubated in culture medium (RPMI-1640 supplemented with 10% FBS, 100 U/mL penicillin, 100 μg/mL streptomycin, 1 mM L-glutamine and 1 mM sodium pyruvate) with either 200 μM control sugar (peracetylated N-acetylmannosamine, Ac4ManNAc) or azido-sugar (peracetylated azido-N-acetylmannosamine, Ac4ManNAz) for 3 days.
For Time-lapse imaging of live cells, experiments were carried out using a confocal microscope (TCS-SP5-MP-SMD, Leica) equipped with an incubator to keep the cells in culture conditions. Prewashed cells were incubated with 100 μM compound 1 in PBS buffer with 10% DMSO and images of cell were acquired at 450 nm emission and in 5-min intervals.
For comparing the localization of azido-glycans, probe-labeled cells were washed with PBS, fixed with 3% paraformaldehyde in PBS at room temperature for 20 min, permeablized with 0.2% Triton X-100 in PBS at room temperature for 20 min, and blocked with 3% bovine serum albumin in PBS at room temperature for 30 min. Cells were stained with fluorescein conjugated WGA lectin for Golgi, and propidium iodide (PI) for nucleus (FIG. 12).
Performance of Compound 1 in live cell imaging was investigated. Highly invasive lung cancer cells, CL1-5, were cultured in the presence of peracetylated azido-N-acetylmannosamine (Ac4ManNAz, 200 μM) for 3 days to metabolically produce the azido-sialic acid expressed cells. As a negative control, CL1-5 cells were grown in the presence of peracetylated N-acetylmannosamine (Ac4ManNAc, 200 μM). A time course experiment was conducted by treating 100 μM of Compound 1 (once) and conducted by exposing the cells at 5-min intervals under no-wash and no-fixation conditions (FIG. 8 and FIG. 12). […] Furthermore, the localization of azido-containing glycoconjugates in living cells was visualized by confocal microscopy. The cells labeled by Compound 1 were subsequently stained with fluorescein-conjugated WGA lectin (a Golgi marker) and propidium iodide (PI, a nucleus marker).

[5] = SPAAC kinetics with N-azidoacetylmannosamine monitored by 1H-NMR; conditions: CD3OD/D2O (5:1, v/v), equimolar 20 mM, 25° C.
Method: (§1) Experiment II: Compound 1 and N-azidoacetylmannosamine were predissolved in CD3OD/D2O (5:1, v/v), and then mixed at equimolar concentration of 20 mM. The reaction was monitored by ^1H-NMR analysis over a period of 1 h. The concentration of each component was determined, based on the concentration of initial compound 1, by integration at multiple chemical shifts in the ^1H-NMR spectrum. By plotting 1/[1](M^−1) vs. time (sec), a second order rate constant in unit of M^−1s^−1 was determined using linear regression analysis. This procedure was repeated 3 times with a concentrated of 20 mM to afford a rate constant of 0.010 M^−1s^−1 at 25° C. (FIG. 11).

[6] = Time course of ligation with ManNAz by fluorescence spectroscopy; conditions: emission 435 nm, excitation 330 nm; 10% DMSO in PBS, 37° C.
Method: To probe the SPAAC reaction under the conditions that would be more typical for biomolecule labeling, the fluorescence response and time course for the reaction of Compound 1 with N-azidoacetylmannosamine (ManNAz) were investigated.
A solution of Compound 1 ([…]) and N-azidoacetylmannosamine (15 μmol) in a mixture of 10% DMSO in PBS buffer (2.5 mL) was incubated at 37° C. The fluorescence emission intensity at 435 nm upon excitation at 330 nm was monitored in 5 min intervals. For each point the fluorescence intensity was measured over a period of 5 sec and averaged over a total of 3 points. In a control experiment the same conditions were used except that N-acetylmannosamine (15 μmol) was added to the solution.

[7] = SPAAC kinetics with benzyl azide monitored by 1H-NMR; conditions: CD3CN, 25° C.
Method: The cycloaddition of compound 1 with benzyl azide was a second-order reaction. […] The second-order rate constant (k) was determined to be 0.015 M^−1s^−1 at 25° C. […] (Agard, et al., J. Am. Chem. Soc. 2004, 126, 15046; Ning, et al., Angew. Chem. Int. Ed. 2008, 47, 2253).
as §1, with “I:” for “II:”, “benzyl azide” for “N-azidoacetylmannosamine”, “CD3CN,” for “CD3OD/D2O (5:1, v/v),”, “0.012” for “0.010”, “4B).” for “11).”

fluorescence emission band [1]: 435 nm
quantum yield Φf [1]: 0.21
SMILES: O=C(Cn1nnc2c1CCCCc1cc3ccc(=O)oc3cc1-2)NC1C(O)OC(CO)[C@@H](O)C1O (stereo partly drawn) [Compound 1-B, N-[2-(11-Oxo-4,6,7,11-tetrahydrochromeno[7′,6′:3,4]cycloocta[1,2-d][1,2,3]triazol-3 (5H)-yl)]acetamido-2-deoxy-α,β-D-mannopyranose]

absorption λmax [2]: 500 nm
fluorescence quantum yield Φf [2]: 0.017
fluorescence λmax [2]: 515 nm
extinction coefficient ε [2]: 8,600 M^−1 cm^−1
SMILES: C#Cc1ccc2cc(/C=C/C3=[N+](CCCCS(=O)(=O)[O-])c4ccccc4C3(C)C)c(=O)oc2c1 [Compound C, (E)-7-ethynyl-3-[N-(4-sulfonatobutyl)-3,3-dimethyl-3H-indolium-2-yl]ethenyl-2H-chromen-2-one]

absorption band λmax [3]: 330 nm
quantum yield relative to Compound 1 [3]: 20 fold
quantum yield Φf [3]: 0.23
extinction coefficient relative to Compound 1 [3]: ~2.5 fold
fluorescence emission λmax [3]: 400 nm
SMILES: O=c1ccc2cc3c(cc2o1)-c1nnn(Cc2ccccc2)c1CCCC3 [Compound 3a]

absorption band λmax [3]: 330 nm
quantum yield relative to Compound 1 [3]: 20 fold
quantum yield Φf [3]: 0.22
extinction coefficient relative to Compound 1 [3]: ~2.5 fold
fluorescence emission λmax [3]: 400 nm
SMILES: O=c1ccc2cc3c(cc2o1)-c1c(nnn1Cc1ccccc1)CCCC3 [Compound 3b]

absorption λmax [2]: 500 nm
fluorescence quantum yield Φf [2]: 0.56
fluorescence λmax [2]: 520 nm
extinction coefficient ε [2]: 32,000 M^−1 cm^−1
SMILES: CC1(C)C(/C=C/c2cc3ccc(-c4cn(Cc5ccccc5)nn4)cc3oc2=O)=[N+](CCCCS(=O)(=O)[O-])c2ccccc21 [Compound 18]

absorption band λmax [3]: 330 nm
quantum yield Φf [3]: 0.011
fluorescence emission λmax [3]: 400 nm
fluorescence emission band [1]: 405 nm
quantum yield Φf [1]: 0.011
SMILES: O=c1ccc2cc3c(cc2o1)C#CCCCC3 [Compound 1, 10,11-Dehydro-6,7,8,9-tetrahydro-cycloocta[g]chromen-2-one]
fluorescence of Ac4ManNAz treated cells ([4]; 100 μM probe, 5-min intervals, no-wash, no-fixation): time-dependent increase of fluorescence intensity
fluorescence of control cells (background labeling) ([4]; 100 μM probe, CL1-5 cells grown with 200 μM Ac4ManNAc): almost no fluorescence staining
time until cell labeling complete ([4]; 100 μM probe, CL1-5 cells pre-treated with 200 μM Ac4ManNAz for 3 days, no-wash, no-fixation): 1.5 h
localization of probe-labeled sialylated glycans ([4]; confocal microscopy, co-staining with fluorescein-WGA lectin (Golgi) and propidium iodide (nucleus)): partially co-localized with Golgi apparatus staining, but not with nucleus staining
second order rate constant [5]: 0.010 M⁻¹ s⁻¹
time until fluorescence intensity reached a plateau [6]: less than 1 h
second order rate constant ([7]; benzyl azide, equimolar 20 mM, repeated 3 times): 0.012 M⁻¹ s⁻¹
second-order rate constant (k) ([7]; cycloaddition with benzyl azide, 19 mM): 0.015 M⁻¹ s⁻¹

fluorescence emission band [1]: 435 nm
quantum yield Φf [1]: 0.23
SMILES: O=c1ccc2cc3c(cc2o1)-c1nnn(Cc2ccccc2)c1CCCC3 [Compound 1-A, 10-Benzyl-6,7,8,9-tetrahydro-cyclooctatriazolo[5,4-g]chromen-2 (2H)-one]
